For one series, the system named is Haemonchus placei. Description: Method H: cattle in vivo, Haemonchus placei. An excerpt:
(§1) Method H: Screening Method to Test Activity of Compounds Against Haemonchus placei, Ostertagia ostertagi, Trichostrongylus axei, Cooperia punctata, Bunostomum phlebotomum, Oesophagostomum radiatum, Dictyocaulus viviparus, and Nematodirus helvetianus In Vivo in Cattle.
(§2) Calves were challenged intra-aurally with larvae from Bunostomum phlebotomum (500-1000 L3 per animal) on Dat −56; and orally with larvae from Oesophagostomum radiatum (1,000-2,000 infective L3 per animal) on Dat −49, Nematodirus helvetianus (3,000-6,000 infective L3 per animal) on Dat −28, Haemonchus placei (5,000-7,000 infective L3 per animal) on Dat −28, Dictyocaulus viviparus (1,000-2,000 infective L3 per animal) on Dat −28, Ostertagia ostertagi (10,000-20,000 infective L3 per animal) on Dat −21, Trichostrongylus axei (10,000-20,000 infective L3 per animal) on Dat −21, Cooperia punctata (10,000-20,000 infective L3 per animal) on Dat −28, and Cooperia oncophora (10,000-20,000 infective L3 per animal) on Dat −21. The test compound was administered alone at a dose of 3 or 6 mg/kg orally or subcutaneously or subcutaneously at a dose of 6 mg/kg in combination with ivermectin at a dose of 50 mcg/kg. For oral administration, test compounds were formulated at a concentration of 10 mg/mL in DMSO/Corn oil (1:1). For subcutaneous administration, test compounds were formulated in propylene glycol/glycerol formal (60:40). All treatments were administered at Day 0. At necropsy on Day 14/15, the abomasa, small intestine and large intestine were removed and processed for parasite recovery. Nematode counts were conducted on appropriate aliquots. Efficacy was calculated for each nematode species by calculating the percent efficacy as 100[(C−T)/C], where C is the mean count among untreated controls and T is the count of the treated animals. Compound number 3.024 provided >95% efficacy against Haemonchus placei, Ostertagia ostertagi, Trichostrongylus axei, Cooperia punctata, Oesophagostomum radiatum and Nematodirus helvetianus at a dose as low as 3 mg/kg administered orally. […]

The next series deals with Nematodirus helvetianus. Description: Method H: cattle in vivo, Nematodirus helvetianus.
Text: as §1, §2

Series [1] relates to ivermectin-resistant Haemonchus contortus. Put plainly: Method I: sheep in vivo, ivermectin-resistant Haemonchus contortus. An excerpt:
(§3) Method I: Screening Method to Test Activity of Compounds Against Ivermectin-Resistant Haemonchus contortus, Ostertagia circumcincta, and Trichostrongylus colubriformis In Vivo in Sheep.
(§4) Sheep were challenged orally with infective 3rd stage larvae (L3) of Ostertagia circumcincta (˜3,000-6,000 infective L3 per animal) on Dat −28, Haemonchus contortus (˜2,000-4,000 infective L3 per animal) on Dat −25, and Trichostrongylus colubriformis (˜3,000-6,000 infective L3 per species per animal) on Dat −23. The inoculation schedule was designed so that nematodes were expected to be in the adult stage on Day 0. Test compounds were dissolved in a mixture of DMSO/Corn oil (1:1) at a concentration of 10 mg/mL. All treatments were administered orally once on Day 0. At sacrifice on Day 14 the abomasum, small intestine and large intestine (including cecum) were removed. Nematode counts were conducted on 10% (abomasal and small intestinal content, abomasal soak) or 20% aliquots (large intestinal content). All nematodes were speciated, or assigned to species based on location of recovery (adult females, fourth-stage larvae) for a total count per species. Efficacy was calculated as the % reduction in the mean number of worms in each test group compared with the mean number of worms recovered from the control group. […]

For series [2], the system named is ivermectin-resistant Ostertagia circumcincta. Description: Method I: sheep in vivo, ivermectin-resistant Ostertagia circumcincta.
Text: as §3, §4

The subject of series [3] is ivermectin-resistant Trichostrongylus columbriformis. Description: Method I: sheep in vivo, ivermectin-resistant Trichostrongylus colubriformis.
Text: as §3, §4

Series [4] has as its system Haemonchus contortus. Put plainly: Method B: activity against Haemonchus contortus in vivo in Mongolian gerbil. Also noted: species or system Mongolian gerbil (Meriones unguiculatus). The following applies: po, 72 h, oral gavage, read-out: reduction in nematode infection. How it is done:
Method B: Screening Method to Test Activity of Compounds Against Haemonchus contortus In Vivo in Mongolian Gerbil (Meriones unguiculatus).
Mongolian gerbils, at least five weeks old, were immunosuppressed and artificially infected with ca. 1000 ensheathed Haemonchus contortus third instar larvae. Six days after infection, the Mongolian gerbils were treated by oral gavage with the test compounds, dissolved in a mixture of 2 parts DMSO and 1 part polyethylene glycol (PEG400), at doses of 100 mg/kg and dissolved in pure polyethylene glycol (PEG400) at doses of 10 and 1 mg/kg. Mongolian gerbils treated only with the placebo (2 parts DMSO and 1 part PEG400 or pure PEG400) served as controls. On day 9 (3 days after treatment) the jirds were euthanized and necropsied for recovery of parasites from the stomach. Efficacy was calculated as the average % reduction in the number of worms in each test group compared with the average number of worms from the control group. […] Compound numbers 1.001, 1.008, 1.012, 1.013 and 1.014 provided at least 95% reduction in nematode in Mongolian gerbils treated by oral gavage with test article at a dose of 100 mg/kg. Compound numbers 1.012, 1.033, 1.064, 2.008, 2.037, 2.038, 2.040, 2.041, 3.001 provided at least 95% reduction in nematode infection at a dose of 10 mg/kg. Compound numbers 1.094, 1.096, 2.048, 3.001, 3.007 and 3.009, provided at least 95% reduction in nematode infection at a dose of 1 mg/kg. Compound numbers 3.006, 3.017 and 3.019 provided at least 95% reduction in nematode infection at a dose of 0.5 mg/kg. Compound numbers 3.005, 3.011 and 3.012 provided at least 95% reduction in nematode infection at a dose of 0.3 mg/kg. The eutomer compound number 3.024 provided at least 95% reduction in nematode infection at a dose of 0.1 mg/kg.

The nature of series [5]: Feed solubility in ethanol (preparative chiral separation). Type of series: physicochemical. The following applies: organic solvent or mixture, with stirring and heating. How it is done: The feed solution was filtered through a 0.2 μm filter before use. The enantiomers were separated using a CHIRALPAK®AD® column (CHIRAL Technologies Inc., 20 μm particle size of amylose tris(3,5-dimethylphenylcarbamate) polysaccharide CHIRALPAK®AD® stationary phase, 5 cm internal diameter, 50 cm length at 25° C. and flow rate of 110 mL/min) with injection volume of 65 mL every 11 min. The fractions collected from the chromatographic process for each of the two chromatographic eluting peaks were concentrated using a a 20 L rotary evaporator at 40° C. and 50 mbar. After solvent removal, the products were dried to constant weight in a vacuum oven at 40° C. The target eutomer (+)-N-[2-(6-Bromo-2H-pyrazolo[4,3-b]pyridin-2-yl)-1-cyano-1-methylethyl]-4-trifluoromethoxybenzamide was isolated from the first eluting peak with a recovery yield of 89.0% (19.3 g). […] The distomer (−)-N-[2-(6-Bromo-2H-pyrazolo[4,3-b]pyridin-2-yl)-1-cyano-1-methylethyl]-4-trifluoromethoxybenzamide was isolated from the second eluting peak with a recovery yield of 94.5% (20.5 g). The percent enantiomeric excess of the distomer is 98.8% as measured via analytical chiral HPLC using a CHIRALPAK®AD® column (CHIRAL Technologies Inc., 4.6×250 mm, at 30° C., flow rate of 0.7 mL/min of EtOH mobile phase, retention time=12.5 min).

For series [6], the system named is Haemonchus contortus. Put plainly: Method A: screening of activity against Haemonchus contortus L1 larvae in microtitre plate (development to L3 / motility). An excerpt: Method A: Screening Method to Test Activity of Compounds Against Haemonchus contortus.
Another series concerns Toxocara cati. Description: Method G: anthelmintic efficacy against induced infections of adult nematodes in cats, Toxocara cati. Type of series: in vivo. Particulars: oral, once, doses as low as 1 mg/kg. How it is done: (§5) Method G: Evaluation of Anthelmintic Efficacy Against Induced Infections of Adult Nematodes in Cats
(§6) Cats were inoculated on three consecutive days with an aliquot of infective eggs of Toxocara cati (days −63, −62, −61) and Ancylostoma tubaeforme (days −28, −27, −26) from one bulk solution each. The inoculation schedule was designed such that nematodes were adult on day 0. The approximate number of infective eggs/larvae given was recorded. Fecal samples were collected between day −7 and day −1 and examined to confirm the presence of infections, and are reported as eggs/gram of feces. Each formulation was orally administered once on day 0. On day 8, the cats were humanely euthanized. The stomach, cecum, small and large intestines were removed and the total content was retained for parasite recovery. Parasites were collected and identified. Efficacy was determined for each nematode species by calculating the percent efficacy as 100[(C−T)/C], where C is the mean count among untreated controls and T is the count of the treated animals.

A further series concerns Ancylostoma tubaeforme. Put plainly: Method G: anthelmintic efficacy against induced infections of adult nematodes in cats, Ancylostoma tubaeforme. The series is classed as in vivo. The following applies: oral, once, doses as low as 1 mg/kg. The procedure:
as §5, §6

The next series relates to Ostertagia ostertagi. Description: Method H: cattle in vivo, Ostertagia ostertagi. Particulars: compound alone, dose as low as 3 mg/kg administered orally.
Text: as §1
(§7) Calves were challenged intra-aurally with larvae from Bunostomum phlebotomum (500-1000 L3 per animal) on Dat −56; and orally with larvae from Oesophagostomum radiatum (1,000-2,000 infective L3 per animal) on Dat −49, Nematodirus helvetianus (3,000-6,000 infective L3 per animal) on Dat −28, Haemonchus placei (5,000-7,000 infective L3 per animal) on Dat −28, Dictyocaulus viviparus (1,000-2,000 infective L3 per animal) on Dat −28, Ostertagia ostertagi (10,000-20,000 infective L3 per animal) on Dat −21, Trichostrongylus axei (10,000-20,000 infective L3 per animal) on Dat −21, Cooperia punctata (10,000-20,000 infective L3 per animal) on Dat −28, and Cooperia oncophora (10,000-20,000 infective L3 per animal) on Dat −21. The test compound was administered alone at a dose of 3 or 6 mg/kg orally or subcutaneously or subcutaneously at a dose of 6 mg/kg in combination with ivermectin at a dose of 50 mcg/kg. […] Efficacy was calculated for each nematode species by calculating the percent efficacy as 100[(C−T)/C], where C is the mean count among untreated controls and T is the count of the treated animals. […]

A further series deals with Trichostrongylus axei. Description: Method H: cattle in vivo, Trichostrongylus axei. Particulars: compound alone, dose as low as 3 mg/kg administered orally.
Text: as §1, §7

A further series deals with Cooperia punctata. Put plainly: Method H: cattle in vivo, Cooperia punctata. Particulars: compound alone, dose as low as 3 mg/kg administered orally.
Text: as §1, §7

The next series concerns Oesophagostomum radiatum. Put plainly: Method H: cattle in vivo, Oesophagostomum radiatum. The following applies: compound alone, dose as low as 3 mg/kg administered orally.
Text: as §1, §7

For series [7], the system named is Ivermectin-Resistant Haemonchus contortus, Ostertagia circumcincta, and Trichostrongylus colubriformis. Put plainly: Method I: activity against ivermectin-resistant nematodes in vivo in sheep (all species tested). Particulars: oral, once, doses as low as 1.5 mg/kg.
Text: as §3, §4

A further series has as its system Caenorhabditis elegans. Put plainly: Inhibition of the motility of Caenorhabditis elegans.
The mark [8] stands for this setting: ivermectin alone, 0.2 mg/kg (200 μg/kg) subcutaneously.
Where [9] appears, read: compound alone, dose as low as 3 mg/kg administered orally.
Where [10] appears, read: subcutaneous, 6 mg/kg in combination with ivermectin 50 μg/kg (0.05 mg/kg).

From US8461176B2, “Enantiomerically enriched aryloazol-2-yl cyanoethylamino compounds, method of making and method of using thereof” (Merial Limited, priority 2008, dated 2013) come the findings set out here.

≈ marks a conversion by molar mass, not a printed value.

In the case of ivermectin [reference compound], the “efficacy against Haemonchus placei (ivermectin-resistant strain)” value in the series with Haemonchus placei (setting [8]) was “less than 70%”. For the same compound, the “efficacy against Nematodirus helvetianus” value with Nematodirus helvetianus (setting [8]) is “less than 30%”. For the same compound, the “activity against ivermectin-resistant Haemonchus contortus” value in [1] (ivermectin orally at 0.2 mg/kg) is “almost completely inactive”. Also, the “efficacy against ivermectin-resistant Ostertagia circumcincta” value in series [2] (ivermectin orally at 0.2 mg/kg) was “less than 30%”. Also, in series [3] (ivermectin orally at 0.2 mg/kg), the “efficacy against ivermectin-resistant Trichostrongylus columbriformis” value is listed as “less than 60%”.

With `CC(C#N)(Cn1cc2ncc(Br)cc2n1)NC(=O)c1ccc(OC(F)(F)F)cc1` (stereo not shown) [Compound 3.011, N-[2-(6-Bromo-2H-pyrazolo[4,3-b]pyridin-2-yl)-1-cyano-1-methylethyl]-4-trifluoromethoxybenzamide], the inhibition in vivo at 0.3 mg/kg with Haemonchus contortus [4] (dose 0.3 mg/kg) was no less than 95%. Besides, the solubility in series [5] was 8600 µg/mL (≈ 18.4 mM).

`C[C@](C#N)(Cn1cc2ncc(Br)cc2n1)NC(=O)c1ccc(OC(F)(F)F)cc1` [Compound 3.024, (+)-N-[2-(6-Bromo-2H-pyrazolo[4,3-b]pyridin-2-yl)-1-cyano-1-methylethyl]-4-trifluoromethoxybenzamide] had an inhibition at 0.0025 ppm with Haemonchus contortus [6] (Haemonchus contortus, 96 h, test concentration 0.0025 ppm, 4 days assessment) of no less than 90%. In the series with Haemonchus contortus [6] (relative to the distomer (compound 3.025)), the “potency at inhibiting the motility of Haemonchus contortus larvae, eutomer relative to distomer” value is “greater than 100 times”. In addition, the inhibition in vivo at 0.1 mg/kg in the series on Haemonchus contortus [4] (dose 0.1 mg/kg) was no less than 95%. Moreover, the “efficacy against Toxocara cati” value in the series with Toxocara cati is on record as greater than 94%. Further, the “efficacy against Ancylostoma tubaeforme” value in the series with Ancylostoma tubaeforme is on record as greater than 94%. In addition, the “efficacy against Haemonchus placei” value in the series with Haemonchus placei (setting [9]) is greater than 95%. The “efficacy against Haemonchus placei (ivermectin-resistant strain)” value with Haemonchus placei (setting [10]) was “greater than 95%”. Further, the “efficacy against Ostertagia ostertagi” value in the series with Ostertagia ostertagi is recorded as greater than 95%. Further, the “efficacy against Trichostrongylus axei” value in the series with Trichostrongylus axei is greater than 95%. In the series on Cooperia punctata, the “efficacy against Cooperia punctata” value was greater than 95%. For the same compound, in the series with Oesophagostomum radiatum, the “efficacy against Oesophagostomum radiatum” value is greater than 95%. Moreover, the “efficacy against Nematodirus helvetianus” value is reported as greater than 95% in the series on Nematodirus helvetianus (setting [9]) and “greater than 95%” in the series on Nematodirus helvetianus (setting [10]). In series [7], the “efficacy against all species of the nematodes tested (ivermectin-resistant)” value is on record as greater than 95%. Besides, the “efficacy against ivermectin-resistant Haemonchus contortus” value in [1] (1.5 mg/kg or 3 mg/kg orally) was “greater than 95%”. The “efficacy against ivermectin-resistant Ostertagia circumcincta” value in [2] (1.5 mg/kg or 3 mg/kg orally) was “greater than 95%”. Besides, the “efficacy against ivermectin-resistant Trichostrongylus columbriformis” value in series [3] (1.5 mg/kg or 3 mg/kg orally) is “greater than 95%”. Also, the “potency at inhibiting the motility of Caenorhabditis elegans, relative to compound 3.025” value in the series with Caenorhabditis elegans is recorded as “greater than 100 times”.
